Reference: article PMC7254866 (ACS chemical biology, 2019)

Columns and labels:
[1] = test system: FpL2-6, H11G11, Rg3, and Rh2 GUS enzymes; assay: Catalytic efficiency across the four regorafenib-glucuronide processing enzymes; assay type: biochemical; details: 4-MUG versus regorafenib-glucuronide
[2] = target: Rh2GUS (Roseburia hominis, UniProt A0A395V8I7); assay: Inhibition of Rh2GUS; assay type: biochemical
[3] = target: (UniProt D5GU71); assay: Inhibition of H11G11 GUS; assay type: biochemical, uncultured taxon
[4] = target: FpL2-6 (Faecalibacterium prausnitzii, UniProt D4K3H3); assay: Inhibition of FpL2-6 GUS; assay type: biochemical
[5] = test system: cecum and cecal contents of germ-free mice; assay: Regorafenib-glucuronide conversion in ceca of germ-free mice; assay type: in vitro ADME, germ-free C57BL/6J mice; details: cecum and cecal contents of 5 GF mice, 48 h incubation
[6] = test system: intestinal homogenate lysates (cecum, small intestine, large intestine); assay: Regorafenib-glucuronide conversion in intestinal homogenates of SPF mice; assay type: in vitro ADME, C57BL/6J mice
[7] = test system: G380M variant of FpL2-6; assay: Regorafenib-glucuronide processing by G380M variant of FpL2-6; assay type: biochemical, Faecalibacterium prausnitzii
[8] = test system: gut microbial GUS enzymes in human feces; assay type: in vitro ADME
[9] = test system: gut microbial GUS enzymes in mouse fecal samples; assay type: in vitro ADME, mice (C57BL/6 and BALB/c)

Chain of (UniProt D5GU71) (D5GU71 1-754): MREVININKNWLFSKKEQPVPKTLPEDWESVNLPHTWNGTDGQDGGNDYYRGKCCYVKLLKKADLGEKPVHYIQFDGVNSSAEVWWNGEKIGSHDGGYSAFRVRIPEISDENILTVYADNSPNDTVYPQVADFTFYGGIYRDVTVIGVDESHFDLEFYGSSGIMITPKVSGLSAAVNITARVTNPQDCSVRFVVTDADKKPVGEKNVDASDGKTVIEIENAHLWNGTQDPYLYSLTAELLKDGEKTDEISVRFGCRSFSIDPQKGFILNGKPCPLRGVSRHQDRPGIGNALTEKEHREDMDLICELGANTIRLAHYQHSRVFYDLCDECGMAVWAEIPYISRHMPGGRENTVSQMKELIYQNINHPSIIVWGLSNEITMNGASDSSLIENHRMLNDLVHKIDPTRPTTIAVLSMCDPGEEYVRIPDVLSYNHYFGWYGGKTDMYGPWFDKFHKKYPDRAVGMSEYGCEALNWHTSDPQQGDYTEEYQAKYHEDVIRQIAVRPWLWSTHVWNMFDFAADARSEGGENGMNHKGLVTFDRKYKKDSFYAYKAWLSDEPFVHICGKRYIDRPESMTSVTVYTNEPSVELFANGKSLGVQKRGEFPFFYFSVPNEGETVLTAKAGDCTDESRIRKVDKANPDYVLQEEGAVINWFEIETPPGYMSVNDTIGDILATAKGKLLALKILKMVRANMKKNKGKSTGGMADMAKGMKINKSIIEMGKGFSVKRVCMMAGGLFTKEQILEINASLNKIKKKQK

Compound: Cc1cc(=O)oc2cc(O[C@@H]3O[C@H](C(=O)O)[C@@H](O)[C@H](O)[C@H]3O)ccc12 [4-MUG, 4-methylumbelliferyl glucuronide]
- rate relative to rates with regorafenib-glucuronide [1]: 10–100 times faster

Compound: Cc1c(-c2ccc(O)cc2)n(Cc2ccc(OCCN3CCCCCC3)cc2)c2ccc(O)cc12 [bazedoxifene]
- potency (in words) ([2]; toward Rh2GUS): low micromolar

Compound: O=C(c1ccc(OCCN2CCCCC2)cc1)c1c(-c2ccc(O)cc2)sc2cc(O)ccc12 [raloxifene]
- IC50 [2]: 13 ± 3 µM
- IC50 [3]: 100 ± 5 µM
- IC50 [4]: 78 ± 9 µM

Compound: regorafenib-glucuronide
- reactivation of regorafenib from regorafenib-glucuronide [5]: neither the cecum nor its contents were able to catalyze the reactivation
- regorafenib-glucuronide converted to regorafenib ([6]; cecal extracts of SPF mice, 48 h): almost all
- conversion of regorafenib-glucuronide to regorafenib ([6]; small and large intestine homogenates, after 48 h): relatively little conversion
- increase in catalytic efficiency ([7]; G380M variant versus FpL2-6 wild type): 40 fold
- catalytic efficiency ([7]; substrate regorafenib-glucuronide, G380M variant of FpL2-6): 4560 s⁻¹ M⁻¹
- regorafenib-glucuronide reactivation [8]: no regorafenib-glucuronide reactivation
- conversion of regorafenib-glucuronide to regorafenib [9]: no conversion
